These results are taken from US11578074B2, “Nitrogenous heterocyclic compound, preparation method, intermediate, composition, and application” (SHANGHAI PHARMACEUTICALS HOLDING CO., LTD., priority 2017, dated 2023).

Data set [1] deals with HER2 overexpressing human gastric cancer NCI-N87 nude mice xenograft. Put plainly: HER2 overexpressing human gastric cancer NCI-N87 nude mice xenograft model. Format: in vivo. The note with it: continuous oral administration for 21 days. The source says: We have established nude mice xenograft model for HER2 overexpression.
In general terms: Xenograft models place foreign cells or tissue in a host animal.

Data set [2] is described as follows: In vivo pharmacokinetics study in cynomolgus monkeys. Particulars: male, cynomolgus monkey, in vivo, po, 15 mg/kg. How it is done:
6 male cynomolgus monkeys (purchased from Guangxi Guidong Primate Development Experiment Co., Ltd., certificate No. SCXK (Guangxi) 2013-0057) were divided into 2 groups with 3 in each group, and all of the animals were fasted for about 12 hours before administration. One group was orally administrated with 15 mg/kg of the final product of Embodiment 22 (deionized water was added, followed by sonication for 30 minutes and stirring for 3 minutes, and a clear pale yellow dosing solution with a concentration of 3 mg/mL was prepared); one group was administrated with 15 mg/kg of Pyrotinib (deionized water was added, followed by sonication for 30 minutes and stirring for 4 minutes, and a clear yellow dosing solution with a concentration of 3 mg/mL was prepared). Blood samples were collected before administration and at 15, 30, 60, 90, 120, 150, 180, 240, 360, 480, 720 and 1440 minutes respectively after administration.
1.0 mL of blood was collected from each animal through jugular vein puncture at each time point and heparin sodium was used for anticoagulation. The blood samples were collected and placed in labeled centrifuge tubes, and plasma was centrifuged (centrifugation conditions: 3500 rpm, 10 minutes, 2-8° C.). To 50 μL of plasma sample was added 300 μL of acetonitrile containing internal standard (Propranolol, 25 ng/mL) to precipitate the protain. After vortexing for 10 minutes and centrifuging at 6000 g for 20 minutes, 100 μL of supernatant was taken and injected into a 96-well plate. The drug concentration in plasma was determined by UPLC/MS-MS.

Data set [3] can be described thus: In vivo pharmacokinetic study in rats. Particulars: male, SD, rat, plasma, oral, 3 mg/kg intravenous, 6 mg/kg intragastric. As for the experimental part:
Five male SD rats, weighing 180-220 g (provided by Shanghai Xipuerbikai Experimental Animal Co., Ltd, certificate No. 20130016005408). The rats were fasted for feed but not water for 12-16 hours before the experiment. Two rats were intravenously injected with 3 mg/kg (which was dissolved by the ratio 0.9% physiological saline:PEG 400=7:3, to give a clear solution with a concentration of 1 mg/mL and a dosage volume of 3 mL/kg) of the final product of Embodiment 45. Blood samples were collected before administration and at 2, 5, 15, 30, 60, 90, 120, 240, 360, 480, 600 and 1440 minutes after administration respectively; three rats were intragastricly administrated with 6 mg/kg (0.5% CMC-Na was added and grounded into a uniform suspension with a concentration of 0.75 mg/mL and a dosage volume of 8 mL/kg) of the final product of Embodiment 45. Blood samples were collected before administration and at 5, 15, 30, 60, 90, 120, 240, 360, 480, 600 and 1440 minutes after administration respectively.
0.4 mL of blood was taken from fundus venous plexus of mice and rats into a heparinized centrifuge tube (10 μL heparin sodium solution/tube). […] After vortexing for 10 minutes and centrifuging at 6000 g and 4° C. for 10 minutes, the supernatant was diluted with mobile phase in a 96-well plate, and the drug concentration in plasma was determined by UPLC/MS-MS.

As a reminder, the AUC is concentration integrated over time. Consider `CCOc1cc2ncnc(Nc3ccc(Oc4ccn5ncnc5c4)c(C)c3)c2cc1NC(=O)/C=C/[C@H]1CCCN1C` [Final product of Embodiment 22, (R,E)-N-(4-((4-([1,2,4]triazolo[1,5-a]pyridin-7-yloxy)-3-methylphenyl)amino)-7-ethoxyquinazolin-6-yl)-3-(1-methylpyrrolidin-2-yl)acrylamide], for which, in data set [1] (5 mg/kg, 10 mg/kg and 20 mg/kg), the tolerability entry was “tolerant”. Also, the entries for the “tumor volume inhibition rate (GI %)” value in data set [1] (5 mg/kg), in data set [1] (10 mg/kg) and in data set [1] (20 mg/kg) were 51.5%, 130.1% and 146.2%, respectively. The AUC in data set [2] came to 5.58 µg·h/mL. In data set [2], the “oral absorption peak concentration” value was determined as 506.5 ng/mL.

In general, bioavailability refers to the share of a dose that reaches the circulation, judged against a reference dose that is usually intravenous. Read a low bioavailability as little systemic uptake. `CCOc1cc2ncnc(Nc3ccc(Oc4ccn5ncnc5c4)c(C)c3)c2cc1NC(=O)/C(F)=C/[C@H]1CCCN1C` [Final product of Embodiment 45] yielded a bioavailability in data set [3] of 71.3%.
